Reference: ChEMBL document CHEMBL5291721, “A preclinical secondary pharmacology resource illuminates target-adverse drug reaction associations of marketed drugs” (Nat Commun, 2023)

Legend:
[1] = target: Mu-type opioid receptor (Homo sapiens, UniProt P35372)
[2] = target: Adenosine receptor A2a (Homo sapiens, UniProt P29274)
[3] = target: Beta-1 adrenergic receptor (Homo sapiens, UniProt P08588); assay type: functional
[4] = target: T1, Alpha-2C adrenergic receptor (Homo sapiens, UniProt P18825); assay type: functional
T1 sequence (P18825 whole entry): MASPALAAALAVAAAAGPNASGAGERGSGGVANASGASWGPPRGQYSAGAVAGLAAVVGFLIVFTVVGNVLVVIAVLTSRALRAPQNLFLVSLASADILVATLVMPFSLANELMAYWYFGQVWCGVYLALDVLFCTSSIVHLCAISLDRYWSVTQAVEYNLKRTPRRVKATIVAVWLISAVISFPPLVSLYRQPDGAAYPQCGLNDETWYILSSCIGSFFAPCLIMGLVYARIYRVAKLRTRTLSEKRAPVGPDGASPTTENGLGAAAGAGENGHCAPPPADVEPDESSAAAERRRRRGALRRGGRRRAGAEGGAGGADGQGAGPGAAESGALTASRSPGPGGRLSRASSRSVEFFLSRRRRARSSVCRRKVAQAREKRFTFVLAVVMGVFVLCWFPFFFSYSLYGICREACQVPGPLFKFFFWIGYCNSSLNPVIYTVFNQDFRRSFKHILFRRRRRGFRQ

[5] = target: Neuronal acetylcholine receptor subunit alpha-4 (Homo sapiens, UniProt P43681)
Chain of Neuronal acetylcholine receptor subunit alpha-4 (P43681 whole entry): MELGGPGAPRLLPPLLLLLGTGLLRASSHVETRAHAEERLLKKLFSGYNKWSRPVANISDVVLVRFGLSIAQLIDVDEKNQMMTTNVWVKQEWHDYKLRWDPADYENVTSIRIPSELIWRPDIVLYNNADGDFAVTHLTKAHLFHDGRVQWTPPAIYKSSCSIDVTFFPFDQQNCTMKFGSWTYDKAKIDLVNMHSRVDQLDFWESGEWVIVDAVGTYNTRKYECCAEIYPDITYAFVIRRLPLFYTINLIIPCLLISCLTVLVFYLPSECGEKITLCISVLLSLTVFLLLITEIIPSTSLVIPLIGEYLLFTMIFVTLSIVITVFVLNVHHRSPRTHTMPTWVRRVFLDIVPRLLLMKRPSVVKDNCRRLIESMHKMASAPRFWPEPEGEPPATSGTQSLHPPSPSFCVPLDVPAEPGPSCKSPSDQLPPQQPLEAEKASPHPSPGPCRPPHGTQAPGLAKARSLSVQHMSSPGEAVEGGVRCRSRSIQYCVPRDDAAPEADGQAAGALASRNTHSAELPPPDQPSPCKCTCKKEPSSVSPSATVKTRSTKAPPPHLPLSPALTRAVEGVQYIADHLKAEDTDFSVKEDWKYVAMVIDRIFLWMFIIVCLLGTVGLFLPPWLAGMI

[6] = target: Gamma-aminobutyric acid receptor subunit alpha-1 (Rattus norvegicus, UniProt P62813); assay type: functional
Chain of Gamma-aminobutyric acid receptor subunit alpha-1 (P62813 whole entry): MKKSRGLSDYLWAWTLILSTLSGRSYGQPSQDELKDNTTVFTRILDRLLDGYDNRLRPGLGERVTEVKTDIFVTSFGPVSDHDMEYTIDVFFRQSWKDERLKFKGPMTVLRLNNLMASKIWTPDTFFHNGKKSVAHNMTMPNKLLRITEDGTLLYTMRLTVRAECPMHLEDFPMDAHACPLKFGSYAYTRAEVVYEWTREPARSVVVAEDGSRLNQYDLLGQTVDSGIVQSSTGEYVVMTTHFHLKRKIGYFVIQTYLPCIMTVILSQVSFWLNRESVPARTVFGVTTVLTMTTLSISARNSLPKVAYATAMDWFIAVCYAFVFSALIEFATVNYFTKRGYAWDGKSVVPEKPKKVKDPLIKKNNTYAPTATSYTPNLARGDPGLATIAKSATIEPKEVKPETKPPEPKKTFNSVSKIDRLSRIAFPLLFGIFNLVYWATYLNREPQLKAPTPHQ

[7] = target: D(1A) dopamine receptor (Homo sapiens, UniProt P21728); assay type: functional, cell-based
Chain of D(1A) dopamine receptor (P21728 whole entry): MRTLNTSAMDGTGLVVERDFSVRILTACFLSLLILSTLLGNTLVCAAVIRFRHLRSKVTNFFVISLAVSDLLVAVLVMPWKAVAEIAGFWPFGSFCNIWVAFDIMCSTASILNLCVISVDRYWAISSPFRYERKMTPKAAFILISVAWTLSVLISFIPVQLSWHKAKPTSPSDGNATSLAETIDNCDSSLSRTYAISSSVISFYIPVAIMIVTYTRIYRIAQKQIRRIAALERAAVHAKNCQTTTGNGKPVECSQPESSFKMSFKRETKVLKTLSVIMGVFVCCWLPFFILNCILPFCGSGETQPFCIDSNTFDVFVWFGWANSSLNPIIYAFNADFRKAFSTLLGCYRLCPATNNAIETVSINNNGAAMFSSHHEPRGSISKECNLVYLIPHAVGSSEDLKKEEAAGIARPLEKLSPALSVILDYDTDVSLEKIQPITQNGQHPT

[8] = target: 5-hydroxytryptamine receptor 2B (Homo sapiens, UniProt P41595); assay type: functional, cell-based
Chain of 5-hydroxytryptamine receptor 2B (P41595 whole entry): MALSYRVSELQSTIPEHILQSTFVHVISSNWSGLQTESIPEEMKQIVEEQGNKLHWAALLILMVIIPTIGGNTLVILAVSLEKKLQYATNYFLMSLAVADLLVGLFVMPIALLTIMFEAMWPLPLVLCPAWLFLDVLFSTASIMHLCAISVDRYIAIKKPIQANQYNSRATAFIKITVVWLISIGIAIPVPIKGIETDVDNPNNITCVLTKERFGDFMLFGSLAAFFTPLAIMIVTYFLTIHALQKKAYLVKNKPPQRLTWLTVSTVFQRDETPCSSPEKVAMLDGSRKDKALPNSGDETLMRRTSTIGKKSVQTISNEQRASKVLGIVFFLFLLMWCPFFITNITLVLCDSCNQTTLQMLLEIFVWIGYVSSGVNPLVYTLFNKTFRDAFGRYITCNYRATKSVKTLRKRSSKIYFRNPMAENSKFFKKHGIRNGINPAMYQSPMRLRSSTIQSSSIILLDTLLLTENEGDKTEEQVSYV

[9] = target: T2, 5-hydroxytryptamine receptor 2A (Homo sapiens, UniProt P28223); assay type: functional, cell-based
T2 sequence (P28223 whole entry): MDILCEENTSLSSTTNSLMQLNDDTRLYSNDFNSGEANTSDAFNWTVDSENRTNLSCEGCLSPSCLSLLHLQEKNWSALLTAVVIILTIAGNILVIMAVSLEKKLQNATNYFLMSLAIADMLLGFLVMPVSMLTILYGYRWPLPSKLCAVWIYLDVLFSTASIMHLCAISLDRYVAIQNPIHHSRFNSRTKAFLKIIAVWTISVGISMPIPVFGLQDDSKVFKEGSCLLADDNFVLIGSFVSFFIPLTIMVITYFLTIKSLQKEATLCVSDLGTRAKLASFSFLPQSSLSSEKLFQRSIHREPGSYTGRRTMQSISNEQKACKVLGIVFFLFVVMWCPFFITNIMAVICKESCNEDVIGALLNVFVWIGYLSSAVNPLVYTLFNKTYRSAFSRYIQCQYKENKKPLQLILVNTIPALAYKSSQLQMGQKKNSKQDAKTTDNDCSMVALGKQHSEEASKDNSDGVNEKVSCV

[10] = target: Muscarinic acetylcholine receptor M3 (Homo sapiens, UniProt P20309)
Chain of Muscarinic acetylcholine receptor M3 (P20309 whole entry): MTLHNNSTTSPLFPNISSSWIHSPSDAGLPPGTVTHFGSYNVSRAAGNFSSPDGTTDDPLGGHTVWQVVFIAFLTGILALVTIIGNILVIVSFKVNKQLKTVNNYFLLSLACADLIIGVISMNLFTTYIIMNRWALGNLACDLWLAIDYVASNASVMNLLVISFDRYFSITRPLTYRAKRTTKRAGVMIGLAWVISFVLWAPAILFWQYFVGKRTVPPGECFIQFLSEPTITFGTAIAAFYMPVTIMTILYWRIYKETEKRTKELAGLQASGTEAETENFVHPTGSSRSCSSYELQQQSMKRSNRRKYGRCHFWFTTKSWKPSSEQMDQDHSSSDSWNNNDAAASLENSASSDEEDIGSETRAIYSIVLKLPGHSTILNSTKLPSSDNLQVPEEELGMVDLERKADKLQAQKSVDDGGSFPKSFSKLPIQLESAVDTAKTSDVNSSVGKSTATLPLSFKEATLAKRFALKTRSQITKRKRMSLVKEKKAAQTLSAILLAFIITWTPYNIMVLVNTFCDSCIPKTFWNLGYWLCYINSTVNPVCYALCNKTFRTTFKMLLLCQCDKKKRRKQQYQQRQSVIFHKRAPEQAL

[11] = target: T3, Alpha-2A adrenergic receptor (Homo sapiens, UniProt P08913); assay type: functional, cell-based
T3 sequence (P08913 whole entry): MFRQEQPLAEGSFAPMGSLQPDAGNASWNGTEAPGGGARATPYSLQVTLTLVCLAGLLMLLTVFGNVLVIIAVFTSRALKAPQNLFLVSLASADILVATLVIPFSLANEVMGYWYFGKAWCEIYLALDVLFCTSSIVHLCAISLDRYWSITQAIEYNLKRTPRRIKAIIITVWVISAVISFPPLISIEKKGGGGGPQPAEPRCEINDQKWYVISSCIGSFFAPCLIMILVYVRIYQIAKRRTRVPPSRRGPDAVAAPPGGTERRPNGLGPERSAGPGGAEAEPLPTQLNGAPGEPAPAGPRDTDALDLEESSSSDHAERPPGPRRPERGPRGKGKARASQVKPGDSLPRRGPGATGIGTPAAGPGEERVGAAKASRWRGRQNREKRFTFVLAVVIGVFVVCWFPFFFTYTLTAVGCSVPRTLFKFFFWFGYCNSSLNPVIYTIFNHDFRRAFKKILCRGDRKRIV

[12] = target: T3, Alpha-2A adrenergic receptor; assay type: functional, cell-based; remark: listed apart in the source
[13] = target: T4, B2 bradykinin receptor (Homo sapiens, UniProt P30411)
T4 sequence (P30411 whole entry): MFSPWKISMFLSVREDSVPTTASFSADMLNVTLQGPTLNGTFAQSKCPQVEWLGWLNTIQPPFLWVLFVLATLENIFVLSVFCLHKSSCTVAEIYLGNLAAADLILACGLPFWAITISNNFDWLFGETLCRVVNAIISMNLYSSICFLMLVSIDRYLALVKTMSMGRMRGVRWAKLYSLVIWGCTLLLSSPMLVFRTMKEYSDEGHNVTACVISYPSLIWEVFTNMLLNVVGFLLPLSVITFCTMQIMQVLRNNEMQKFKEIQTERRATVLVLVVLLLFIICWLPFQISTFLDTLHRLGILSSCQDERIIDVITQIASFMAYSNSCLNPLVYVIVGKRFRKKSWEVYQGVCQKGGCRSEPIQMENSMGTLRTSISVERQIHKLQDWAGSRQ

[14] = target: T2, 5-hydroxytryptamine receptor 2A; assay type: functional, cell-based; remark: listed apart in the source
[15] = target: T5, Alpha-1A adrenergic receptor (Homo sapiens, UniProt P35348); assay type: functional, cell-based
T5 sequence (P35348 whole entry): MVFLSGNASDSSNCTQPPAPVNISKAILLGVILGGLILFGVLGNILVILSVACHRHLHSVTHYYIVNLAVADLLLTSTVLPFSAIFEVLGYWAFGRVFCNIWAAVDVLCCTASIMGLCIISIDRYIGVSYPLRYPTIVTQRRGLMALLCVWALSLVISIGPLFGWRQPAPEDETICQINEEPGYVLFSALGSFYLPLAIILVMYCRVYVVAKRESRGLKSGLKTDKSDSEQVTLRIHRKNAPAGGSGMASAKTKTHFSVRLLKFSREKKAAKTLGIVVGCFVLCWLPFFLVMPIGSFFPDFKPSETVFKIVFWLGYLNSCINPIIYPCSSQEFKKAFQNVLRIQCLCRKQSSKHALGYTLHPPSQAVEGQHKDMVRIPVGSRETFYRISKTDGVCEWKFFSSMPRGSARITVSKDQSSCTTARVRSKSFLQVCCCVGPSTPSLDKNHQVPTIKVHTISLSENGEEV

[16] = target: T6, Endothelin-1 receptor (Homo sapiens, UniProt P25101)
T6 sequence (P25101 whole entry): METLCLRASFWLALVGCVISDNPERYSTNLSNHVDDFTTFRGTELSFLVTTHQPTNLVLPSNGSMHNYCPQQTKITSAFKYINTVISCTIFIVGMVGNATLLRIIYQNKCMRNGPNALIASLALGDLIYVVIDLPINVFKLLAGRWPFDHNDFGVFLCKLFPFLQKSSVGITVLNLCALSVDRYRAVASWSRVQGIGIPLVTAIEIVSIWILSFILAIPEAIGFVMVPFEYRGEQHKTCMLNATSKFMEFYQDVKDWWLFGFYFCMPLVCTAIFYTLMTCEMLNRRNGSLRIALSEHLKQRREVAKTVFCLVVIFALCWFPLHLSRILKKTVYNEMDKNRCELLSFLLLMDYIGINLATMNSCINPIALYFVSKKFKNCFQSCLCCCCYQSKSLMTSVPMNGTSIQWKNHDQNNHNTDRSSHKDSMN
Further: assay procedure not described here.

Chain of Adenosine receptor A2a (P29274 whole entry): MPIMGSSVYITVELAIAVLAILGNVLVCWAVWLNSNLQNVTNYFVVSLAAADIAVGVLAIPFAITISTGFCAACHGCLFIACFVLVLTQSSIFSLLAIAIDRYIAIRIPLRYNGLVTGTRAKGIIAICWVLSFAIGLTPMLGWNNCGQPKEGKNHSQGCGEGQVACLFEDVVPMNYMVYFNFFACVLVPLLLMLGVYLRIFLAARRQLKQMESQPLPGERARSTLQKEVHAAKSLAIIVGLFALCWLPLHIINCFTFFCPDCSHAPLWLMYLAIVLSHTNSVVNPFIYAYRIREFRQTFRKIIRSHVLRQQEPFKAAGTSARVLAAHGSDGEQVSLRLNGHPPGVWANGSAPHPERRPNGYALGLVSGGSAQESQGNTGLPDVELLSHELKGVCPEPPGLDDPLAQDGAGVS
Chain of Beta-1 adrenergic receptor (P08588 whole entry): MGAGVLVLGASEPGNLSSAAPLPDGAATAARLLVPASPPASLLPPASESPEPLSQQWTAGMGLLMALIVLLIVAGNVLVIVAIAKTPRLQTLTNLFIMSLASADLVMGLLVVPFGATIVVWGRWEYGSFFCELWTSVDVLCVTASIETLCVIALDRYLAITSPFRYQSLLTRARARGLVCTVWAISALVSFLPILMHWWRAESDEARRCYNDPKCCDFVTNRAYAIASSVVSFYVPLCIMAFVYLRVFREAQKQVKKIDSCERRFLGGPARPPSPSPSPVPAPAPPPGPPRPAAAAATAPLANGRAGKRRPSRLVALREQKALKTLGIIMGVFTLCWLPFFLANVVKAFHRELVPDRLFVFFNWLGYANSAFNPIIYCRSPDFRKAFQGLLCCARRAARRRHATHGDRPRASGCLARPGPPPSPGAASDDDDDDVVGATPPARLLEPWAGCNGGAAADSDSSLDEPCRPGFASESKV
Chain of Mu-type opioid receptor (P35372 whole entry): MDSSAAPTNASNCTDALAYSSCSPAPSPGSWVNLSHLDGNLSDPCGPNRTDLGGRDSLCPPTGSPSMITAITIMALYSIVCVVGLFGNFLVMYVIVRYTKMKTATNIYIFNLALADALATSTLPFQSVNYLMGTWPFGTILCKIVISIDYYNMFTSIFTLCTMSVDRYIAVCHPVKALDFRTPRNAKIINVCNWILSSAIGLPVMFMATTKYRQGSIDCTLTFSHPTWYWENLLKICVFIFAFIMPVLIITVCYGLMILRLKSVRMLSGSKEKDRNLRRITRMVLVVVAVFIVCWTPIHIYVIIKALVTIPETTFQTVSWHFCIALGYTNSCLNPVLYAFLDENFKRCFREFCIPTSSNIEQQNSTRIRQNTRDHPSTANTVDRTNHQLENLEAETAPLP

| Structure (SMILES) | AC50 [1] [µM] | AC50 [2] [µM] | AC50 [3] [µM] | AC50 [4] [µM] | AC50 [5] [µM] | AC50 [6] [µM] | AC50 [7] [µM] | AC50 [8] [µM] | AC50 [9] [µM] | AC50 [10] [µM] | AC50 [11] [µM] | AC50 [12] [µM] | AC50 [13] [µM] | AC50 [14] [µM] | AC50 [15] [µM] | AC50 [16] [µM] |
| --- | --- | --- | --- | --- | --- | --- | --- | --- | --- | --- | --- | --- | --- | --- | --- | --- |
| O=C(O)c1ccc(NC(=O)[C@H](Cc2ccc(O)cc2)NC(=O)c2ccccc2)cc1 [BENTIROMIDE] | > 30 | > 10 | > 10 | > 10 | > 10 | > 10 | > 10 | > 10 | > 10 | > 30 | > 10 | > 10 | > 10 | > 10 | – | – |
| CN1CCN=C(c2ccccc2)c2cc(Cl)ccc21 [MEDAZEPAM] | – | > 30 | > 30 | > 30 | 30 | 2.1 | > 30 | > 30 | > 30 | > 30 | > 30 | > 30 | > 30 | > 30 | > 30 | > 30 |
| O=C(NCCO[N+](=O)[O-])c1cccnc1 [NICORANDIL] | – | > 30 | > 30 | > 30 | > 30 | > 30 | > 30 | > 30 | > 30 | > 30 | > 30 | > 30 | > 30 | > 30 | > 30 | > 30 |
| COc1cc2[nH]c(C)c(CCN3CCN(c4ccccc4)CC3)c2cc1OC [OXYPERTINE] | – | > 30 | 26 | 1.4 | 27 | > 30 | > 30 | 0.12 | 0.41 | > 30 | 7.4 | > 30 | > 30 | > 30 | > 30 | > 30 |
| c1ccc(C2(N3CCCCC3)CCCCC2)cc1 [PHENCYCLIDINE] | – | > 30 | > 30 | > 30 | > 30 | > 30 | > 30 | > 30 | > 30 | > 30 | > 30 | > 30 | > 30 | > 30 | > 30 | > 30 |
| OC[C@H]1O[C@@H](Oc2cc(O)cc(/C=C/c3ccc(O)cc3)c2)[C@H](O)[C@@H](O)[C@@H]1O [PICEID] | – | > 30 | > 30 | > 30 | > 30 | > 30 | > 30 | > 30 | > 30 | > 30 | > 30 | > 30 | > 30 | > 30 | > 30 | > 30 |
